Data: patent US10689346B2, “Human plasma kallikrein inhibitors” (BioCryst Pharmaceuticals, Inc., priority 2014, dated 2020)

What was measured:
human plasma kallikrein = human plasma kallikrein (Homo sapiens (Human), UniProt P03952); assay: Plasma Kallikrein Activity Assay; assay type: biochemical
Procedure: Plasma Kallikrein Activity Assay.
The effect of compounds of the invention on human plasma kallikrein activity was determined using the chromogenic substrates (DiaPharma Group, Inc., West Chester, Ohio, USA). In these experiments, 2 nM kallikrein (Enzyme Research Laboratories, South Bend, Ind., USA) was incubated with 80 μM S2302 (H-D-Pro-Phe-Arg-p-nitroaniline) in the absence or presence of increasing concentrations of compounds of the invention in a final volume of 200 μL Tris-HCl buffer (200 mM NaCl; 2.5 mM CaCl2; 50 mM Tris-HCl, pH 7.8).
Data were analyzed using SigmaPlot software (Systat Software, Inc., San Jose, Calif., USA) (Four Parameter Logistic Curve).

[1] = system: middle cerebral artery occlusion (MCAO); conditions: mouse model of MCAO; cited from earlier work
sepsis = sepsis patients; cited from earlier work
[2] = system: LPS- or bacterial-induced sepsis; conditions: LPS- or bacterial-induced sepsis in animals; cited from earlier work
[3] = system: hereditary angioedema (HAE); conditions: cited from earlier work
ischemic stroke = conditions: animal model of ischemic stroke; cited from earlier work

Sequence of human plasma kallikrein (P03952 whole entry, looked up): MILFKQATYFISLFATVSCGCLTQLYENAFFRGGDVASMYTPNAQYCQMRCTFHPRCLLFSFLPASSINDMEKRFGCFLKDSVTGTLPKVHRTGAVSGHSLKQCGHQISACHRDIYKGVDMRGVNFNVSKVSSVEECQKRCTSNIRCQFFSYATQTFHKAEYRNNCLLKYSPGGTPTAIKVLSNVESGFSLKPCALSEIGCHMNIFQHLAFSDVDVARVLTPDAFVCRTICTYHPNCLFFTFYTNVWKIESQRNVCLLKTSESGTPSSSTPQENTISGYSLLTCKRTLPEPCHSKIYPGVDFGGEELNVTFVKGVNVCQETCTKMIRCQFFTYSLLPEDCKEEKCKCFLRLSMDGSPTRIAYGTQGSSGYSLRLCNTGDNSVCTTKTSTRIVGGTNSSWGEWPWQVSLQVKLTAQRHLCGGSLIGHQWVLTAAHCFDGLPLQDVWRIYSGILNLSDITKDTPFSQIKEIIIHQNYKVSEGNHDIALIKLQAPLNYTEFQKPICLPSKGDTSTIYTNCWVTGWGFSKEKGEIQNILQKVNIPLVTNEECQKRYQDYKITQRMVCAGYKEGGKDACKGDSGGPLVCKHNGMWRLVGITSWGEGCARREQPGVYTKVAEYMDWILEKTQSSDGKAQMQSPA
Sequence of human plasma kallikrein (P03952 whole entry partner, looked up): as the sequence (P03952 whole entry, looked up) above

CN(C1CC1)C(c1cccc(N)c1)c1cccc(NC(=O)c2cc(C(F)(F)F)nn2-c2cccc(CN)c2)c1 (centres unmarked) [Compound 102b, 1-(3-(aminomethyl)phenyl)-N-(3-((3-aminophenyl)(cyclopropyl-methylamino)methyl)phenyl)-3-(trifluoromethyl)-1H-pyrazole-5-carboxamide]
Ki (human plasma kallikrein): 0.1 to 50 nM

C1-inhibitor: "a physiological inhibitor (C1-inhibitor)"; "reduced infarct size in a mouse model of middle cerebral artery occlusion" [Compound C1-inhibitor]
infarct size [1]: reduced infarct size | clinical improvement (sepsis): Clinical improvement was observed | lesions [2]: reduce lesions | vascular permeability in multiple organs [2]: reduce vascular permeability

NC(N)=NCCC[C@@H](N)C(=O)N[C@@H](CCCN=C(N)N)C(=O)N1CCC[C@H]1C(=O)N1C[C@H](O)C[C@H]1C(=O)NCC(=O)N[C@@H](Cc1cccs1)C(=O)N[C@@H](CO)C(=O)N1Cc2ccccc2C[C@@H]1C(=O)N1[C@H](C(=O)N[C@@H](CCCN=C(N)N)C(=O)O)C[C@@H]2CCCC[C@@H]21 [Icatibant]
efficacy in treating HAE ([3]; HAE): effective in treating HAE

ecallantide [DX-88]
edema ([3]; patients with hereditary angioedema (HAE)): alleviates edema | brain edema (ischemic stroke): reduced | infarct volume (ischemic stroke): reduced | neurological deficits (ischemic stroke): reduced

H-D-Pro-Phe-Arg-chloromethylketone [H-D-Pro-Phe-Arg-chloromethylketone (CMK)]
lesions [2]: reduce lesions
